Laboratory results from publication PMC6981637, “Tetrahydroquinoline-Isoxazole/Isoxazoline Hybrid Compounds as Potential Cholinesterases Inhibitors: Synthesis, Enzyme Inhibition Assays, and Molecular Modeling Studies” (International Journal of Molecular Sciences, 2019).
Several values for one entry are separate records, joined by “and”; a condition that tells them apart may be missing. Equal entries are not always repeated. Where two headings read alike, the source gives them in different places.

What was measured:
[1] = target: T1, BChE (from bovine serum) (Bos taurus, UniProt P32749); assay: BChE inhibitory activity (Ellman method); format: biochemical; conditions: for IC50: average from three independent experiments ± SEM; for selectivity against BChE: conclusions
T1 construct: purchased Sigma-Aldrich

[2] = target: AChE (from Electrophorus electricus) (Electrophorus electricus, UniProt O42275)
[3] = Table 1, THQ–isoxazoline hybrids 5, read-out: IC50 BChE
[4] = Table 2, THQ–isoxazole hybrids 6, read-out: BChE (IC50)

Chain of AChE (from Electrophorus electricus) (O42275 24-633): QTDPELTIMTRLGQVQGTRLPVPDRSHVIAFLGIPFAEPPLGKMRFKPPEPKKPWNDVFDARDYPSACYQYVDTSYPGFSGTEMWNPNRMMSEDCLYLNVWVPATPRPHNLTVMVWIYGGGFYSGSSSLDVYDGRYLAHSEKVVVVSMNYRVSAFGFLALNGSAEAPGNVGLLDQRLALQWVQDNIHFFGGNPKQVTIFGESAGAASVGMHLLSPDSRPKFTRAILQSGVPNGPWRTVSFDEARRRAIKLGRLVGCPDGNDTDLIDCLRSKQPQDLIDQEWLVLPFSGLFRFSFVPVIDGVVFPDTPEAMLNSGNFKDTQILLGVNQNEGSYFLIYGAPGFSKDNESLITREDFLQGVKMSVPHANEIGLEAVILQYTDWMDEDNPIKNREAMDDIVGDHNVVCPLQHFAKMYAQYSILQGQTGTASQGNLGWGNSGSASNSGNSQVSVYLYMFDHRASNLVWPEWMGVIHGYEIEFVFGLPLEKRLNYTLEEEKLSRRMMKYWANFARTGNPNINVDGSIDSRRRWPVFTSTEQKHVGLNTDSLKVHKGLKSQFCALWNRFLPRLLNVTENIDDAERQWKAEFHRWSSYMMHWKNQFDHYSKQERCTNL
T1 sequence (P32749 29-602): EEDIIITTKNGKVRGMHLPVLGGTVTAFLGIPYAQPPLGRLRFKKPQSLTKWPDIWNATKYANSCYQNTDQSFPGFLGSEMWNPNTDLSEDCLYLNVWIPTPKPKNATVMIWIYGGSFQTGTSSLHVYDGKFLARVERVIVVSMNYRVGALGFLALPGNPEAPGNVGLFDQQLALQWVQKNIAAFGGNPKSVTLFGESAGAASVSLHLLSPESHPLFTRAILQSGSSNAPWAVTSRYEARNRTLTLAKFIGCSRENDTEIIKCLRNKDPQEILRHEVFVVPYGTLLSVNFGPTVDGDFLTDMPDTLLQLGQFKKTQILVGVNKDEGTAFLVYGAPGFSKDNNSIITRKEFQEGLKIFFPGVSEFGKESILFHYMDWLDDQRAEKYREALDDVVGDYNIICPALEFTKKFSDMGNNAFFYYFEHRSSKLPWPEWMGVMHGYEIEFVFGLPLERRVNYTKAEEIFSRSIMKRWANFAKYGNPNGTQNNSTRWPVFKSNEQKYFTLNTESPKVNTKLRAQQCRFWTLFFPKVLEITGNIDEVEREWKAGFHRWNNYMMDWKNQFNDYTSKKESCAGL

SMILES	IC50 [1, 3] [µM]	SI [2]	IC50 ([2]; read-out: IC50 AChE) [µM]	selectivity for inhibiting AChE [2]	IC50 [1, 4]	selectivity against BChE [1]	IC50 ([2]; read-out: AChE (IC50)) [µM]	times more potent against BChE than for the AChE enzyme ([1]; selectivity for BChE)
O=C1CCCN1C1CCN(CC2CC(c3ccccc3)=NO2)c2ccccc21 (centres unmarked) [5a, 3-phenyl-5-[(4-(2′-oxopyrrolidin-1′-yl)-3,4-dihydroquinolin-1(2H)-yl)-methyl]-4,5 dihydroisoxazole]	81.9 ± 0.04	1.06	77.37 ± 0.01					
COc1ccc(C2=NOC(CN3CCC(N4CCCC4=O)c4ccccc43)C2)cc1 (centres unmarked) [5b, 3-(4-methoxyphenyl)-5-[4-((2′-oxopyrrolidin-1′-yl)-3,4-dihydroquinolin-1(2H)-yl)-methyl]-4,5-dihydroisoxazole]	65.59 ± 0.006	0.69	95.14 ± 0.08					
COc1ccc(C2=NOC(CN3CCC(N4CCCC4=O)c4ccccc43)C2)cc1OC (centres unmarked) [5c, 3-(3,4-dimethoxyphenyl)-5-[4-((2′-oxopyrrolidin-1′-yl)-3,4-dihydroquinolin-1(2H)-yl)-methyl]-4,5-dihydroisoxazole]			100.65 ± 0.05					
COc1cc(C2=NOC(CN3CCC(N4CCCC4=O)c4ccccc43)C2)cc(OC)c1OC (centres unmarked) [5d, 3-(3,4,5-trimethoxyphenyl)-5-[4-((2′-oxopyrrolidin-1′-yl)-3,4-dihydroquinolin-1(2H)-yl)-methyl]-4,5-dihydroisoxazole]	13.66 ± 0.01	0.27	49.82 ± 0.03					
Cc1ccc2c(c1)C(N1CCCC1=O)CCN2CC1CC(c2ccccc2)=NO1 (centres unmarked) [5e, 5-[(6-methyl-4-(2′-oxopyrrolidin-1′-yl)-3,4-dihydroquinolin-1(2H)-yl)-methyl]-3-phenyl-4,5-dihydroisoxazole]	31.4 ± 0.01	0.17	189.1 ± 0.01					
COc1ccc(C2=NOC(CN3CCC(N4CCCC4=O)c4cc(C)ccc43)C2)cc1 (centres unmarked) [5f, 3-(4-methoxyphenyl)-5-[(6-methyl-4-(2′-oxopyrrolidin-1′-yl)-3,4-dihydroquinolin-1(2H)-yl)-methyl]-4,5-dihydroisoxazole]	23.36 ± 0.005	1.43	16.31 ± 0.01					
COc1ccc(C2=NOC(CN3CCC(N4CCCC4=O)c4cc(C)ccc43)C2)cc1OC (centres unmarked) [5g, 3-(3,4-dimethoxyphenyl)-5-[(6-methyl-4-(2′-oxopyrrolidin-1′-yl)-3,4-dihydroquinolin-1(2H)-yl)-methyl]-4,5-dihydroisoxazole]	31.49 ± 0.005	0.32	99.71 ± 0.01					
COc1cc(C2=NOC(CN3CCC(N4CCCC4=O)c4cc(C)ccc43)C2)cc(OC)c1OC (centres unmarked) [5h, 5-[(6-methyl-4-(2′-oxopyrrolidin-1′-yl)-3,4-dihydroquinolin-1(2H)-yl)-methyl]-3-(3,4,5-trimethoxyphenyl)-4,5-dihydroisoxazole]	63.72 ± 0.001	1.70	37.41 ± 0.03					
COc1ccc2c(c1)C(N1CCCC1=O)CCN2CC1CC(c2ccccc2)=NO1 (centres unmarked) [5i, 5-[(6-methoxy-4-(2′-oxopyrrolidin-1′-yl)-3,4-dihydroquinolin-1(2H)-yl)-methyl]-3-phenyl-4,5-dihydroisoxazole]	146.37 ± 0.03	1.79	82.04 ± 0.11					
COc1ccc(C2=NOC(CN3CCC(N4CCCC4=O)c4cc(OC)ccc43)C2)cc1 (centres unmarked) [5j, 3-(4-methoxyphenyl)-5-[(6-methoxy-4-(2′-oxopyrrolidin-1′-yl)-3,4-dihydroquinolin-1(2H)-yl)-methyl]-4,5-dihydroisoxazole]	144.71 ± 0.004	1.55	93.66 ± 0.006					
COc1ccc2c(c1)C(N1CCCC1=O)CCN2CC1CC(c2ccc(OC)c(OC)c2)=NO1 (centres unmarked) [5k, 3-(3,4-dimethoxyphenyl)-5-[(6-methoxy-4-(2′-oxopyrrolidin-1′-yl)-3,4-dihydroquinolin-1(2H)-yl)-methyl]-4,5-dihydroisoxazole]	255.82 ± 0.01	16.8	15.26 ± 0.02	significant selectivity				
COc1ccc2c(c1)C(N1CCCC1=O)CCN2CC1CC(c2cc(OC)c(OC)c(OC)c2)=NO1 (centres unmarked) [5l, 5-[(6-methoxy-4-(2′-oxopyrrolidin-1′-yl)-3,4-dihydroquinolin-1(2H)-yl)-methyl]-3-(3,4,5-trimethoxyphenyl)-4,5-dihydroisoxazole]	43.67 ± 0.02	0.40	109.26 ± 0.01					
O=C1CCCN1C1CCN(CC2CC(c3ccccc3)=NO2)c2ccc(Cl)cc21 (centres unmarked) [5m, 5-[(6-chloro-4-(2′-oxopyrrolidin-1′-yl)-3,4-dihydroquinolin-1(2H)-yl)-methyl]-3-phenyl-4,5-dihydroisoxazole]	19.09 ± 0.01	0.63	30.1 ± 0.01	significant selectivity				
COc1ccc(C2=NOC(CN3CCC(N4CCCC4=O)c4cc(Cl)ccc43)C2)cc1 (centres unmarked) [5n, 5-[(6-chloro-4-(2′-oxopyrrolidin-1′-yl)-3,4-dihydroquinolin-1(2H)-yl)-methyl]-3-(4-methoxyphenyl)-4,5-dihydroisoxazole]	22 ± 0.02	5.19		significant selectivity				
COc1ccc(C2=NOC(CN3CCC(N4CCCC4=O)c4cc(Cl)ccc43)C2)cc1OC (centres unmarked) [5o, 3-(4,5-dimethoxyphenyl)-5-[(6-chloro-4-(2′-oxopyrrolidin-1′-yl)-3,4-dihydroquinolin-1(2H)-yl)-methyl]-4,5-dihydroisoxazole]	83.65 ± 0.01	6.35	13.17 ± 0.02	significant selectivity				
COc1cc(C2=NOC(CN3CCC(N4CCCC4=O)c4cc(Cl)ccc43)C2)cc(OC)c1OC (centres unmarked) [5p, 5-[(6-chloro-4-(2′-oxopyrrolidin-1′-yl)-3,4-dihydroquinolin-1(2H)-yl)-methyl]-3-(3,4,5-trimethoxyphenyl)-4,5-dihydroisoxazole]	106 ± 2	8.61	12.28 ± 0.01					
O=C1CCCN1C1CCN(Cc2cc(-c3ccccc3)no2)c2ccccc21 (centres unmarked) [6a, 3-phenyl-5-((4′-(2′’-oxopyrrolidin-1′’-yl)-3′,4′-dihydroquinolin-1′(2′H)-yl)methyl)isoxazole]		0.04			< 7.18 µM and 4.36 µM	more selective	104.74 ± 0.01	
COc1ccc(-c2cc(CN3CCC(N4CCCC4=O)c4cc(Br)ccc43)on2)cc1OC (centres unmarked) [6aa, 3-(3,4-dimethoxyphenyl)-5-((6′-bromo-4′-(2′’-oxopyrrolidin-1′’-yl)-3′,4′-dihydroquinolin-1′(2′H)-yl)methyl)isoxazole]		0.04			< 7.18 µM and 3.97 µM	more selective	96.1 ± 0.01	about 24 times
COc1cc(-c2cc(CN3CCC(N4CCCC4=O)c4cc(Br)ccc43)on2)cc(OC)c1OC (centres unmarked) [6ab, 5-((6′-bromo-4′-(2′’-oxopyrrolidin-1′’-yl)-3′,4′-dihydroquinolin-1′(2′H)-yl)methyl)-3-(3,4,5-trimethoxyphenyl)isoxazole]		0.36			54.09 ± 0.01 µM		148.31 ± 0.004	
COc1ccc(-c2cc(CN3CCC(N4CCCC4=O)c4ccccc43)on2)cc1 (centres unmarked) [6b, 3-(4-methoxyphenyl)-5-((4′-(2′’-oxopyrrolidin-1′’-yl)-3′,4′-dihydroquinolin-1′(2′H)-yl)methyl)isoxazole]		0.64			27.25 ± 0.003 µM		42.44 ± 0.01	
COc1cc(-c2cc(CN3CCC(N4CCCC4=O)c4ccccc43)on2)cc(OC)c1OC (centres unmarked) [6c, 3-(3,4,5-trimethoxyphenyl)-5-((4′-(2′’-oxopyrrolidin-1′’-yl)-3′,4′-dihydroquinolin-1′(2′H)-yl)methyl)isoxazole]		2.17			47.96 ± 0.01 µM		22.07 ± 0.01	
Cc1ccc2c(c1)C(N1CCCC1=O)CCN2Cc1cc(-c2ccccc2)no1 (centres unmarked) [6d, 5-((6′-methyl-4′-(2′’-oxopyrrolidin-1′’-yl)-3′,4′-dihydroquinolin-1′(2′H)-yl)methyl)-3-phenylisoxazole]		0.49			18.51 ± 0.01 µM		37.84 ± 0.01	
COc1ccc(-c2cc(CN3CCC(N4CCCC4=O)c4cc(C)ccc43)on2)cc1 (centres unmarked) [6e, 3-(4-methoxyphenyl)-5-((6′-methyl-4′-(2′’-oxopyrrolidin-1′’-yl)-3′,4′-dihydroquinolin-1′(2′H)-yl)methyl)isoxazole]		2.62			79.81 ± 0.06 µM		30.43 ± 0.02	
COc1ccc(-c2cc(CN3CCC(N4CCCC4=O)c4cc(C)cc(Cl)c43)on2)cc1OC (centres unmarked) [6f, 5-((8′-chloro-6′-methyl-4′-(2′’-oxopyrrolidin-1′’-yl)-3′,4′-dihydroquinolin-1′(2′H)-yl)methyl)-3-(3,4-dimethoxyphenyl)isoxazole]		6.76			370.12 ± 0.03 µM		54.71 ± 0.02	
COc1cc(-c2cc(CN3CCC(N4CCCC4=O)c4cc(C)ccc43)on2)cc(OC)c1OC (centres unmarked) [6g, 3-(3,4,5-trimethoxyphenyl)-5-((6′-methyl-4′-(2′’-oxopyrrolidin-1′’-yl)-3′,4′-dihydroquinolin-1′(2′H)-yl)methyl)isoxazole]		1.07			78.16 ± 0.01 µM		72.94 ± 0.02	
COc1ccc2c(c1)C(N1CCCC1=O)CCN2Cc1cc(-c2ccccc2)no1 (centres unmarked) [6h, 5-((6′-methoxy-4′-(2′’-oxopyrrolidin-1′’-yl)-3′,4′-dihydroquinolin-1′(2′H)-yl)methyl)-3-phenylisoxazole]		0.08			< 7.18 µM and 4.33 µM	more selective	52.76 ± 0.01	
COc1ccc(-c2cc(CN3CCC(N4CCCC4=O)c4cc(OC)ccc43)on2)cc1 (centres unmarked) [6i, 3-(4-methoxyphenyl)-5-((6′-methoxy-4′-(2′’-oxopyrrolidin-1′’-yl)-3′,4′-dihydroquinolin-1′(2′H)-yl)methyl)isoxazole]		2.52			213.22 ± 0.01 µM		84.51 ± 0.01	
CCc1ccc2c(c1)C(N1CCCC1=O)CCN2Cc1cc(-c2cc(OC)c(OC)c(OC)c2)no1 (centres unmarked) [6t, 5-((6′-ethyl-4′-(2′’-oxopyrrolidin-1′’-yl)-3′,4′-dihydroquinolin-1′(2′H)-yl)methyl)-3-(3,4,5-trimethoxyphenyl)isoxazole]							66.77 ± 0.01	
COc1ccc2c3c1O[C@H]1C[C@@H](O)C=C[C@@]31CCN(C)C2 [Galantamine, galantamine, reference compound]	8.8 ± 0.5				8.8 ± 0.5 µM			
